Experimental data from paper PMC10367113 (Nature chemical biology, 2022).

Experiments:
Type in all cases: biochemical
[1] = target: Bl_Glc31 (Bifidobacterium longum, UniProt Q8G4P4); experiment: LC-MS; conditions: product Man9GlcNAc
[2] = target: T1, Bl_Man38C (Bifidobacterium longum, UniProt Q8G4P9); experiment: LC-MS hydrolysis kinetics; conditions: pH 5.5, 37 °C, 0.1 mM CoCl2
T1 sequence (Q8G4P9 1-1034): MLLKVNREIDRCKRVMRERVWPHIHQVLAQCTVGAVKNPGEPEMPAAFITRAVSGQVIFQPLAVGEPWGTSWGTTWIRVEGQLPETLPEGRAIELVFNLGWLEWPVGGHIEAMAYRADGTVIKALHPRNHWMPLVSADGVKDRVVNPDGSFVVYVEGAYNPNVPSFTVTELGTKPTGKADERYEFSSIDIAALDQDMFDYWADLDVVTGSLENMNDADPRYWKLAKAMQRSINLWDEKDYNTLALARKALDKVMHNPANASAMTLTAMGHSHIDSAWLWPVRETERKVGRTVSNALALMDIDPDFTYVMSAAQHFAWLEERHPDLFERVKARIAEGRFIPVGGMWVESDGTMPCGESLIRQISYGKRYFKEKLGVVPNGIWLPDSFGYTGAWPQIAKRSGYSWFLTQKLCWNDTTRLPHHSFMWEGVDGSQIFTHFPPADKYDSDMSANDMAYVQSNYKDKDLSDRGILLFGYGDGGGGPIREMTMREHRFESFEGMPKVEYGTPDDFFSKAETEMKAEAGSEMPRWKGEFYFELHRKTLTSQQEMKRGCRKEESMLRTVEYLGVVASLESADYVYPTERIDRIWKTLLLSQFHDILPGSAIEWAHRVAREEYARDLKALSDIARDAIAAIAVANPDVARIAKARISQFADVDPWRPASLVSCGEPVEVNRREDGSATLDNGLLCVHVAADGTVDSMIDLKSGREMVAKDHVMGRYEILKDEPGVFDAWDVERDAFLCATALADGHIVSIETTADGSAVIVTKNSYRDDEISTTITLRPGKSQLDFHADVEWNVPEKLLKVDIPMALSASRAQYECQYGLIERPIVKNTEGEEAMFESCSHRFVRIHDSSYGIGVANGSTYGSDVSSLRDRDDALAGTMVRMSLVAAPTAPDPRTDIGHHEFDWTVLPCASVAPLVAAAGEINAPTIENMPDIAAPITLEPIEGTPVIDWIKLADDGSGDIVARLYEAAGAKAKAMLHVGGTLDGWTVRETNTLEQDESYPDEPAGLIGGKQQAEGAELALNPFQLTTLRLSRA

[3] = target: T2, Bl_Man38B (Bifidobacterium longum, UniProt Q8G4Q0); experiment: LC-MS hydrolysis kinetics; conditions: pH 5.5, 37 °C, 0.1 mM CoCl2
T2 sequence (Q8G4Q0 1-1046): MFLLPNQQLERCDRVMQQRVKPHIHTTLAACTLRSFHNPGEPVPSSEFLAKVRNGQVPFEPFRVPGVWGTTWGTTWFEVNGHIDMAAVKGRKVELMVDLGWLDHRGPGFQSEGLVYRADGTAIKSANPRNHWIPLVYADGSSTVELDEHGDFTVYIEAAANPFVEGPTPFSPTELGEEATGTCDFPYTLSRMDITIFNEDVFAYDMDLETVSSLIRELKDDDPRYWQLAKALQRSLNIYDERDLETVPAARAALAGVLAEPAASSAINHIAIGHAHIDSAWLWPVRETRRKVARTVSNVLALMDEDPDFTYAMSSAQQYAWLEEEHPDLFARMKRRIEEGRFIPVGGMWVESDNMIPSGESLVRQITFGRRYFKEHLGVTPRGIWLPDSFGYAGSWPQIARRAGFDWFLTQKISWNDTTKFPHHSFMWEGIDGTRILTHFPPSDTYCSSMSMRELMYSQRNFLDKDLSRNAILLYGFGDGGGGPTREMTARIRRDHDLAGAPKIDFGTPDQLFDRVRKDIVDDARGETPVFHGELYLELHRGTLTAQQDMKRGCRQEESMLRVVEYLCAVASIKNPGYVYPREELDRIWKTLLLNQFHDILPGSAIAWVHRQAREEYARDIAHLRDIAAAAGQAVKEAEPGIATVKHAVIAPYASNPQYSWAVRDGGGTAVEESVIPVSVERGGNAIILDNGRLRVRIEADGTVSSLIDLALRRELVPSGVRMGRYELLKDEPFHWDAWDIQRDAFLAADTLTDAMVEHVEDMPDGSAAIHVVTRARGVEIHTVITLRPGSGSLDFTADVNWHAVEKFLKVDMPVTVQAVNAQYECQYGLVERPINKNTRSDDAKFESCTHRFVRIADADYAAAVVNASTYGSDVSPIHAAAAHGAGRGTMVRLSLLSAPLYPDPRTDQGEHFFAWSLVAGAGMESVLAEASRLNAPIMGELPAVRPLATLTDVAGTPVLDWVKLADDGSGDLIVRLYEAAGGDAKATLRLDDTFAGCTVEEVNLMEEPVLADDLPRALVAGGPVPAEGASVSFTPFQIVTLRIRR

[4] = target: T3, Bl_Man125 (Bifidobacterium longum, UniProt Q8G4P0); experiment: LC-MS hydrolysis kinetics; conditions: pH 5.5, 37 °C
T3 sequence (Q8G4P0 1-432): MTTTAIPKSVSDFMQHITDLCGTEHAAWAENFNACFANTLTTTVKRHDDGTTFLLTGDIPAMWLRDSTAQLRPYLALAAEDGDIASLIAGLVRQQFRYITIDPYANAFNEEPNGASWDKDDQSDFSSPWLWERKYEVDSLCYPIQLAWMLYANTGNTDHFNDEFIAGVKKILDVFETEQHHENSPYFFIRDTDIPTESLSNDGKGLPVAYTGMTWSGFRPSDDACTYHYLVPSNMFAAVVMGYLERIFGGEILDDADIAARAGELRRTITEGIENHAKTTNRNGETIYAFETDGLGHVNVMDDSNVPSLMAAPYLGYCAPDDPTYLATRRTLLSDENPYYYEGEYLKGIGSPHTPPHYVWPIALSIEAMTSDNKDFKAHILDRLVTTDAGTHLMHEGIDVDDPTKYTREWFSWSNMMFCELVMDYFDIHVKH

CC(=O)N[C@H]1C(O)O[C@H](CO)[C@@H](O[C@@H]2O[C@H](CO[C@H]3O[C@H](CO[C@H]4O[C@H](CO)[C@@H](O)[C@H](O)[C@@H]4O[C@H]4O[C@H](CO)[C@@H](O)[C@H](O)[C@@H]4O)[C@@H](O)[C@H](O[C@H]4O[C@H](CO)[C@@H](O)[C@H](O)[C@@H]4O[C@H]4O[C@H](CO)[C@@H](O)[C@H](O)[C@@H]4O)[C@@H]3O)[C@@H](O)[C@H](O[C@H]3O[C@H](CO)[C@@H](O)[C@H](O)[C@@H]3O[C@H]3O[C@H](CO)[C@@H](O)[C@H](O)[C@@H]3O[C@H]3O[C@H](CO)[C@@H](O)[C@H](O[C@H]4O[C@H](CO)[C@@H](O)[C@H](O)[C@H]4O)[C@@H]3O)[C@@H]2O)[C@@H]1O (stereo partly shown) [GlcMan9GlcNAc]
LC-MS [1]: Bl_Glc31 can specifically cleave GlcMan9GlcNAc, generating only Man9GlcNAc

OC[C@H]1O[C@H](O[C@@H]2C(O)O[C@H](CO)[C@@H](O)[C@@H]2O)[C@@H](O)[C@@H](O)[C@@H]1O (stereo partly drawn) [α-1,2-mannobiose]
Km [2]: Bl_Man38C presents a clear preference for α-1,2-mannobiose

OC[C@H]1O[C@H](OC[C@H]2OC(O)[C@@H](O)[C@@H](O)[C@@H]2O)[C@@H](O)[C@@H](O)[C@@H]1O (stereo partly drawn) [α-1,6-mannobiose]
Km [3]: Bl_Man38B was efficient over the three disaccharides
Km [4]: Bl_Man125 was shown to be strictly an α-1,6-mannosidase
